# Measurements as given in US20250304623A1, “PEPTIDES FOR INTRACELLULAR DELIVERY” (UNIVERSIDADE DE SANTIAGO DE COMPOSTELA, priority 2022, published 2025).
# *: point of attachment. NHNH2 = NN*
# What was measured:
# Assay type in all cases: cell-based
# ARPE19 cells = experiment: RLuc pDNA delivery, robotic library screening, ARPE19
# HCT116 cells = experiment: RLuc pDNA delivery, robotic library screening, HCT116
# [1] = tested on: A549 cells expressing EGFP; experiment: EGFP-targeting siRNA delivery (GFP silencing vs siMOCK), A549; details: A549 cells
# [2] = tested on: ARPE19 cells expressing EGFP; experiment: EGFP-targeting siRNA delivery (GFP silencing vs siMOCK), ARPE19
# In short: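 This siRNA delivery assay used stably EGFP-expressing cells seeded a day ahead in 96-well plates. siGFP and amphiphile were combined in DMEM at a constant 30 nM siRNA, incubated 30 min at room temperature, then applied for 4 h before switching to fresh DMEM with 10% FBS. After 72 h, a plate reader measured fluorescence decrease relative to non-targeting siMOCK, subtracting untreated background.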
# [3] = tested on: HepG2 cells expressing EGFP; experiment: EGFP-targeting siRNA delivery (GFP silencing vs siMOCK), HepG2
# In short: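 After 72 h, a plate reader measured EGFP fluorescence in HepG2 EGFP cells transfected with amphiphile/siRNA complexes (30 nM siGFP). Silencing was expressed as percent fluorescence decrease relative to cells given non-targeting siMOCK, with untreated-cell background subtracted. Triplicate means were reported, and Lipofectamine RNAiMAX served as a comparison.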
# [4] = tested on: ARPE19 cells expressing EGFP; experiment: Cas9-RNP delivery against EGFP (gene editing, plate reader), ARPE19
# In short: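 EGFP-expressing cells, generated by stable transfection with EGFP pDNA and G-418 selection, were plated in 96-well plates at 50,000 cell/mL (100 μL/w) in DMEM+10% FBS+1% Gln-Abt. Cas9-RNP targeting EGFP was complexed with amphiphile for 30 min, applied for 4 h at 50 nM RNP, and EGFP fluorescence was read on a plate reader after 72 h.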
# [5] = tested on: HepG2 cells expressing EGFP; experiment: Cas9-RNP delivery against EGFP (gene editing, plate reader), HepG2
# In short: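 Gene editing in EGFP-expressing HepG2 cells was estimated as the percentage drop in GFP fluorescence, measured in triplicate on a plate reader 72 h after Cas9-RNP delivery with amphiphiles. The RNP was made from annealed crRNA/tracrRNA plus 4 μM Cas9 and complexed with amphiphile before a 4 h exposure. Background from untreated control cells was subtracted.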
substance,measurement,setting,value
"Ac-RK*LRK*K*L-NH2 (Ac-RK(NHNH2)LRK(NHNH2)K(NHNH2)L-NH2; not fully specified; printed as Ac-RK*LRK*K*L-NH2; also: K*2,K*5,K*6: native or modified lysine (ε-amide to a linker)) [Peptide 7.3]",mean luminescent intensity (RLuc pDNA),"ARPE19 cells; Dodecanal, 5 μM",661 RLU
same,mean luminescent intensity (RLuc pDNA),"ARPE19 cells; Dodecanal, 10 μM",458 RLU
same,mean luminescent intensity (RLuc pDNA),"ARPE19 cells; Dodecanal, 15 μM",558 RLU
same,mean luminescent intensity (RLuc pDNA),"ARPE19 cells; Myristoleyl, 5 μM",−209 RLU
same,mean luminescent intensity (RLuc pDNA),"ARPE19 cells; Myristoleyl, 10 μM",−262 RLU
same,mean luminescent intensity (RLuc pDNA),"ARPE19 cells; Myristoleyl, 15 μM",−315 RLU
same,mean luminescent intensity (RLuc pDNA),"ARPE19 cells; Palmitoleyl, 5 μM",344 RLU
same,mean luminescent intensity (RLuc pDNA),"ARPE19 cells; Petroselinyl, 5 μM",22197 RLU
same,mean luminescent intensity (RLuc pDNA),"ARPE19 cells; Petroselinyl, 10 μM",31833 RLU
same,mean luminescent intensity (RLuc pDNA),"ARPE19 cells; Petroselinyl, 15 μM",7692 RLU
same,mean luminescent intensity (RLuc pDNA),"HCT116 cells; Dodecanal, 10 μM",1049 RLU
same,mean luminescent intensity (RLuc pDNA),"HCT116 cells; Dodecanal, 15 μM",1534 RLU
same,mean luminescent intensity (RLuc pDNA),"HCT116 cells; Myristoleyl, 5 μM",1060 RLU
same,mean luminescent intensity (RLuc pDNA),"HCT116 cells; Myristoleyl, 10 μM",7147 RLU
same,mean luminescent intensity (RLuc pDNA),"HCT116 cells; Myristoleyl, 15 μM",212 RLU
same,mean luminescent intensity (RLuc pDNA),"HCT116 cells; Petroselinyl, 5 μM",62932 RLU
same,mean luminescent intensity (RLuc pDNA),"HCT116 cells; Petroselinyl, 10 μM",58529 RLU
same,mean luminescent intensity (RLuc pDNA),"HCT116 cells; Petroselinyl, 15 μM",16332 RLU
same,percentage of GFP-silencing relative to siMOCK,"[1]; Dodecanal, 5 μM",7%
same,percentage of GFP-silencing relative to siMOCK,"[1]; Dodecanal, 10 μM",22%
same,percentage of GFP-silencing relative to siMOCK,"[1]; Dodecanal, 15 μM",19%
same,percentage of GFP-silencing relative to siMOCK,"[1]; Oleyl, 5 μM",3%
same,percentage of GFP-silencing relative to siMOCK,"[1]; Oleyl, 15 μM",7%
same,percentage of GFP-silencing relative to siMOCK,"[1]; Petroselinyl, 10 μM",13%
same,percentage of GFP-silencing relative to siMOCK,"[2]; Dodecanal, 5 μM",15%
same,percentage of GFP-silencing relative to siMOCK,"[2]; Dodecanal, 10 μM",35%
same,percentage of GFP-silencing relative to siMOCK,"[2]; Dodecanal, 15 μM",45%
same,percentage of GFP-silencing relative to siMOCK,"[2]; Palmitoleyl, 15 μM",−5%
same,percentage of GFP-silencing relative to siMOCK,"[3]; Dodecanal, 10 μM",17%
same,percentage of GFP-silencing relative to siMOCK,"[3]; Dodecanal, 15 μM",10%
same,percentage of GFP-silencing relative to siMOCK,"[3]; Myristoleyl, 5 μM",6%
same,percentage of GFP-silencing relative to siMOCK,"[3]; Myristoleyl, 10 μM",5%
same,percentage of GFP-silencing relative to siMOCK,"[3]; Myristoleyl, 15 μM",3%
same,percentage of GFP-silencing relative to siMOCK,"[3]; Oleyl, 5 μM",7%
same,percentage of GFP-silencing relative to siMOCK,"[3]; Oleyl, 10 μM",9%
same,percentage of GFP-silencing relative to siMOCK,"[3]; Palmitoleyl, 5 μM",9%
same,percentage of GFP-silencing relative to siMOCK,"[3]; Petroselinyl, 5 μM",18%
same,percentage of GFP-silencing relative to siMOCK,"[3]; Petroselinyl, 10 μM",19%
same,"percentage of gene editing, GFP fluorescence intensity decrease (% of reduction)","[4]; Dodecanal, 5 μM",9%
same,"percentage of gene editing, GFP fluorescence intensity decrease (% of reduction)","[4]; Dodecanal, 10 μM",14%
same,"percentage of gene editing, GFP fluorescence intensity decrease (% of reduction)","[4]; Oleyl, 5 μM",22%
same,"percentage of gene editing, GFP fluorescence intensity decrease (% of reduction)","[4]; Oleyl, 10 μM",35%
same,"percentage of gene editing, GFP fluorescence intensity decrease (% of reduction)","[4]; Oleyl, 15 μM",42%
same,"percentage of gene editing, GFP fluorescence intensity decrease (% of reduction)","[4]; Palmitoleyl, 5 μM",7%
same,"percentage of gene editing, GFP fluorescence intensity decrease (% of reduction)","[4]; Palmitoleyl, 10 μM",9%
same,"percentage of gene editing, GFP fluorescence intensity decrease (% of reduction)","[4]; Palmitoleyl, 15 μM",12%
same,"percentage of gene editing, GFP fluorescence intensity decrease (% of reduction)","[4]; Petroselinyl, 5 μM",25%
same,"percentage of gene editing, GFP fluorescence intensity decrease (% of reduction)","[4]; Petroselinyl, 10 μM",13%
same,"percentage of gene editing, GFP fluorescence intensity decrease (% of reduction)","[5]; Dodecanal, 5 μM",−21%
same,"percentage of gene editing, GFP fluorescence intensity decrease (% of reduction)","[5]; Dodecanal, 10 μM",−24%
same,"percentage of gene editing, GFP fluorescence intensity decrease (% of reduction)","[5]; Dodecanal, 15 μM",−29%
same,"percentage of gene editing, GFP fluorescence intensity decrease (% of reduction)","[5]; Myristoleyl, 5 μM",−19%
same,"percentage of gene editing, GFP fluorescence intensity decrease (% of reduction)","[5]; Myristoleyl, 10 μM",−20%
same,"percentage of gene editing, GFP fluorescence intensity decrease (% of reduction)","[5]; Myristoleyl, 15 μM",−14%
same,"percentage of gene editing, GFP fluorescence intensity decrease (% of reduction)","[5]; Oleyl, 5 μM",−7%
same,"percentage of gene editing, GFP fluorescence intensity decrease (% of reduction)","[5]; Oleyl, 10 μM",−3%
same,"percentage of gene editing, GFP fluorescence intensity decrease (% of reduction)","[5]; Oleyl, 15 μM",−1%
same,"percentage of gene editing, GFP fluorescence intensity decrease (% of reduction)","[5]; Palmitoleyl, 5 μM",−14%
same,"percentage of gene editing, GFP fluorescence intensity decrease (% of reduction)","[5]; Palmitoleyl, 10 μM",−14%
same,"percentage of gene editing, GFP fluorescence intensity decrease (% of reduction)","[5]; Palmitoleyl, 15 μM",−4%
same,"percentage of gene editing, GFP fluorescence intensity decrease (% of reduction)","[5]; Petroselinyl, 10 μM",−1%
